Measurements published in ChEMBL document CHEMBL1133795, “Antagonists of the human CCR5 receptor as anti-HIV-1 agents. part 1: discovery and initial structure-activity relationships for 1 -amino-2-phenyl-4-(piperidin-1-yl)butanes” (Bioorg Med Chem Lett, 2001).

Target: T1, C-C chemokine receptor type 5 (Homo sapiens, UniProt P51681)
Test: Binding affinity towards human CCR5 receptor in Chinese hamster ovary (CHO) cells using [125I]-MIP-1 alpha as radioligand
Assay type: cell-based
Target sequence in this assay (P51681 whole entry): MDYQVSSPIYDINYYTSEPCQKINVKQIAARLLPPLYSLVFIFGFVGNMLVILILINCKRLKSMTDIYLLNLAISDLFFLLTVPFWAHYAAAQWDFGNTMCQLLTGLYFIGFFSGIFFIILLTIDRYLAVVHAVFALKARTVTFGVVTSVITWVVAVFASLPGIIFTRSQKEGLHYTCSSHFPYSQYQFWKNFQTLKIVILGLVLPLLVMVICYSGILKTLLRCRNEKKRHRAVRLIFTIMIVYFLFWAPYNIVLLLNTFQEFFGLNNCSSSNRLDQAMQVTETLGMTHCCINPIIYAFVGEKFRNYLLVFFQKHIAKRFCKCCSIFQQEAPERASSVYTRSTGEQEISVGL

| IC50 | Structure (SMILES) |
| --- | --- |
| 130 nM | CCN(C[C@@H](CCN1CCC2(CC1)C[S+]([O-])c1ccccc12)c1ccc(Cl)c(Cl)c1)S(=O)(=O)c1ccccc1 (stereo partly drawn) |
| 40 nM | COc1ccc(S(=O)(=O)N(C)C[C@@H](CCN2CCC3(CC2)C[S+]([O-])c2ccccc23)c2ccc(Cl)c(Cl)c2)cc1 (stereo partly drawn) |
| 1600 nM | O=S(=O)(NC[C@@H](CCN1CCC2(CC1)CSc1ccccc12)c1ccc(Cl)c(Cl)c1)c1ccccc1 |
| 100 nM | CN(C[C@@H](CCN1CCC2(CC1)C[S+]([O-])c1ccccc12)c1ccc(Cl)c(Cl)c1)S(=O)(=O)c1cccnc1 (stereo partly drawn) |
| 1000 nM | CN(Cc1ccccc1)C[C@@H](CCN1CCC2(CC1)CS(=O)(=O)c1ccccc12)c1ccc(Cl)c(Cl)c1 |
| 360 nM | CN(C[C@@H](CCN1CCC2(CC1)C[S+]([O-])c1ccccc12)c1ccc(Cl)c(Cl)c1)S(=O)(=O)c1cccc2ccccc12 (stereo partly drawn) |
| 80 nM | CN(C[C@@H](CCN1CCC2(CC1)C[S+]([O-])c1ccccc12)c1ccc(Cl)c(Cl)c1)S(=O)(=O)c1ccccc1Cl (stereo partly drawn) |
| 340 nM | CN(C)S(=O)(=O)N(C)C[C@@H](CCN1CCC2(CC1)C[S+]([O-])c1ccccc12)c1ccc(Cl)c(Cl)c1 (stereo partly drawn) |
| 640 nM | CN(C[C@@H](CCN1CCC2(CC1)C[S+]([O-])c1ccccc12)c1ccc(Cl)c(Cl)c1)C(=O)Cc1ccccc1 (stereo partly drawn) |
| 10000 nM | CCN(C[C@@H](CCN1CCC2(CC1)CSc1ccccc12)c1ccc(Cl)c(Cl)c1)S(=O)(=O)c1ccccc1 |
| 340 nM | CN(C[C@@H](CCN1CCC2(CC1)C[S+]([O-])c1ccccc12)c1ccc(Cl)c(Cl)c1)S(=O)(=O)c1cn(C)cn1 (stereo partly drawn) |
| 100 nM | CN(C[C@@H](CCN1CCC2(CC1)C[S+]([O-])c1ccccc12)c1ccc(Cl)c(Cl)c1)S(=O)(=O)C1CCCC1 (stereo partly drawn) |
| 120 nM | CN(C[C@@H](CCN1CCC2(CC1)C[S+]([O-])c1ccccc12)c1ccc(Cl)c(Cl)c1)S(=O)(=O)c1cnc2ccccc2c1 (stereo partly drawn) |
| 850 nM | CN(C[C@@H](CCN1CCC2(CC1)C[S+]([O-])c1ccccc12)c1ccc(Cl)c(Cl)c1)S(C)(=O)=O (stereo partly drawn) |
| 90 nM | CN(C[C@@H](CCN1CCC2(CC1)C[S+]([O-])c1ccccc12)c1ccc(Cl)c(Cl)c1)S(=O)(=O)c1cccc2cccnc12 (stereo partly drawn) |
| 590 nM | CN(C[C@@H](CCN1CCC2(CC1)C[S+]([O-])c1ccccc12)c1ccc(Cl)c(Cl)c1)S(=O)(=O)Cc1ccccc1 (stereo partly drawn) |

| IC50 | Structure (SMILES) |
| --- | --- |
| 150 nM | CN(C[C@@H](CCN1CCC2(CC1)CS(=O)(=O)c1ccccc12)c1ccc(Cl)c(Cl)c1)S(=O)(=O)c1cccc([N+](=O)[O-])c1 |
| 40 nM | CN(C[C@@H](CCN1CCC2(CC1)C[S+]([O-])c1ccccc12)c1ccc(Cl)c(Cl)c1)S(=O)(=O)c1ccc(-c2ccccc2)cc1 (stereo partly drawn) |
| 160 nM | CCN(C[C@@H](CCN1CCC2(CC1)CS(=O)(=O)c1ccccc12)c1ccc(Cl)c(Cl)c1)S(=O)(=O)c1ccccc1 |
| 100 nM | CN(C[C@@H](CCN1CCC2(CC1)C[S+]([O-])c1ccccc12)c1ccc(Cl)c(Cl)c1)S(=O)(=O)C1CCCCC1 (stereo partly drawn) |
| 1400 nM | CCCCCCCCS(=O)(=O)N(C)C[C@@H](CCN1CCC2(CC1)C[S+]([O-])c1ccccc12)c1ccc(Cl)c(Cl)c1 (stereo partly drawn) |
| 35 nM | CN(C[C@@H](CCN1CCC2(CC1)C[S+]([O-])c1ccccc12)c1ccc(Cl)c(Cl)c1)S(=O)(=O)c1ccccc1 (stereo partly drawn) |
| 60 nM | CN(C[C@@H](CCN1CCC2(CC1)C[S+]([O-])c1ccccc12)c1ccc(Cl)c(Cl)c1)S(=O)(=O)c1cccs1 (stereo partly drawn) |
| 40 nM | CN(C[C@@H](CCN1CCC2(CC1)C[S+]([O-])c1ccccc12)c1ccc(Cl)c(Cl)c1)S(=O)(=O)c1ccc(Cl)cc1 (stereo partly drawn) |
| 1000 nM | CN(C[C@@H](CCN1CCC2(CC1)CSc1ccccc12)c1ccc(Cl)c(Cl)c1)S(=O)(=O)c1ccccc1 |
| 60 nM | CN(C[C@@H](CCN1CCC2(CC1)C[S+]([O-])c1ccccc12)c1ccc(Cl)c(Cl)c1)S(=O)(=O)c1ccc2ccccc2c1 (stereo partly drawn) |
| 100 nM | CN(C[C@@H](CCN1CCC2(CC1)CS(=O)(=O)c1ccccc12)c1ccc(Cl)c(Cl)c1)S(=O)(=O)c1ccccc1 |
| 120 nM | CN(C[C@@H](CCN1CCC2(CC1)CS(=O)(=O)c1ccccc12)c1ccc(Cl)c(Cl)c1)S(=O)(=O)c1cccs1 |
| 230 nM | O=S(=O)(NC[C@@H](CCN1CCC2(CC1)C[S+]([O-])c1ccccc12)c1ccc(Cl)c(Cl)c1)c1ccccc1 (stereo partly drawn) |
| 70 nM | CN(C[C@@H](CCN1CCC2(CC1)C[S+]([O-])c1ccccc12)c1ccc(Cl)c(Cl)c1)S(=O)(=O)c1cccc(Cl)c1 (stereo partly drawn) |
| 60 nM | CN(C[C@@H](CCN1CCC2(CC1)CS(=O)(=O)c1ccccc12)c1ccc(Cl)c(Cl)c1)S(=O)(=O)c1ccc([N+](=O)[O-])cc1 |
| 70 nM | CN(C[C@@H](CCN1CCC2(CC1)C[S+]([O-])c1ccccc12)c1ccc(Cl)c(Cl)c1)S(=O)(=O)c1ccc2[nH]ccc2c1 (stereo partly drawn) |

| Structure (SMILES) | IC50 |
| --- | --- |
| CN(C[C@@H](CCN1CCC2(CC1)C[S+]([O-])c1ccccc12)c1ccc(Cl)c(Cl)c1)C(=O)Oc1ccccc1 (stereo partly drawn) | 780 nM |

Target: T1, C-C chemokine receptor type 5
Test: (§1) Binding affinity towards human CCR5 receptor in Chinese hamster ovary (CHO) cells using [125I]-MIP-1 alpha as radioligand at a concentration of 4000 nM
Assay type: cell-based
Target sequence in this assay (P51681 whole entry): as above

| IC50 | Structure (SMILES) |
| --- | --- |
| > 4000 nM | CN(C[C@@H](CCN1CCC2(CC1)C[S+]([O-])c1ccccc12)c1ccc(Cl)c(Cl)c1)S(=O)(=O)c1ccsc1 (stereo partly drawn) |

Target: T1, C-C chemokine receptor type 5
Test: Binding affinity towards human CCR5 receptor in Chinese hamster ovary (CHO) cells using [125I]-MIP-1 alpha as radioligand at a concentration of 1000 nM
Assay type: cell-based
Target sequence in this assay (P51681 whole entry, looked up): as the sequence (P51681 whole entry) above

| inhibition | Structure (SMILES) |
| --- | --- |
| 40% | CN(Cc1ccccc1)C[C@@H](CCN1CCC2(CC1)C[S+]([O-])c1ccccc12)c1ccc(Cl)c(Cl)c1 (stereo partly drawn) |
| 35% | CN(C[C@@H](CCN1CCC2(CC1)C[S+]([O-])c1ccccc12)c1ccc(Cl)c(Cl)c1)C(=O)OC(C)(C)C (stereo partly drawn) |

Target: T1, C-C chemokine receptor type 5
Test: Binding affinity towards human CCR5 receptor in Chinese hamster ovary (CHO) cells using [125I]-MIP-1 alpha as radioligand at a concentration of 10000 nM
Assay type: cell-based
Target sequence in this assay (P51681 whole entry, looked up): as the sequence (P51681 whole entry) above

| inhibition | Structure (SMILES) |
| --- | --- |
| 73% | CN(C[C@@H](CCN1CCC2(CC1)C[S+]([O-])c1ccccc12)c1ccc(Cl)c(Cl)c1)C(=O)N(C)c1ccccc1 (stereo partly drawn) |
| 69% | CN(C[C@@H](CCN1CCC2(CC1)C[S+]([O-])c1ccccc12)c1ccc(Cl)c(Cl)c1)C(=O)Nc1ccccc1 (stereo partly drawn) |

Target: T1, C-C chemokine receptor type 5
Test: as §1
Assay type: cell-based
Target sequence in this assay (P51681 whole entry, looked up): as the sequence (P51681 whole entry) above

| inhibition | Structure (SMILES) |
| --- | --- |
| 0% | CNC[C@@H](CCN1CCC2(CC1)C[S+]([O-])c1ccccc12)c1ccc(Cl)c(Cl)c1 (stereo partly drawn) |
| 2% | CN(C[C@@H](CCN1CCC2(CC1)CS(=O)(=O)c1ccccc12)c1ccc(Cl)c(Cl)c1)C(=O)c1ccccc1 |
| 20% | CN(C[C@@H](CCN1CCC2(CC1)C[S+]([O-])c1ccccc12)c1ccc(Cl)c(Cl)c1)S(=O)(=O)c1ccsc1 (stereo partly drawn) |
| 22% | CN(C[C@@H](CCN1CCC2(CC1)C[S+]([O-])c1ccccc12)c1ccc(Cl)c(Cl)c1)C(=O)c1ccccc1 (stereo partly drawn) |
| 0% | CN(C[C@@H](CCN1CCC2(CC1)CSc1ccccc12)c1ccc(Cl)c(Cl)c1)C(=O)c1ccccc1 |
